{"source": "patent US20180117047A1", "about": "“DRUG FOR PREVENTING AND/OR TREATING DEMENTIA” (NATIONAL UNIVERSITY CORPORATION TOTTORI UNIVERSITY, priority 2015, published 2018)", "key": {"[1]": {"test_system": "Tg(APPSWE)2576KhaTg(Prnp-MAPT*P301L)JNPL3HImc Alzheimer's disease model double transgenic mice", "assay": "Number of nerve cells having AT8 immunostaining-positive neurofibrillary tangles in Alzheimer's disease model double transgenic mice", "type": "in vivo, mouse"}, "[2]": {"test_system": "Tg(APPSWE)2576KhaTg(Prnp-MAPT*P301L)JNPL3HImc Alzheimer's disease model double transgenic mice", "assay": "Number and size of senile plaques in cerebrum coronal cut surfaces of Alzheimer's disease model double transgenic mice (HE, Aβ40, Aβ42 staining)", "type": "in vivo, mouse"}, "[3]": {"conditions": "individual mouse, 5 mg/kg oral every day from one year old, sampled at 730 to 745 days old, 5 mg/kg"}, "[4]": {"conditions": "individual mouse, diameter 50 μm or smaller, 5 mg/kg oral every day from one year old, sampled at 730 to 745 days old, 5 mg/kg"}, "[5]": {"conditions": "individual mouse, diameter 100 μm or larger, 5 mg/kg oral every day from one year old, sampled at 730 to 745 days old, 5 mg/kg"}, "[6]": {"conditions": "individual mouse, diameter between 50 μm and 100 μm, 5 mg/kg oral every day from one year old, sampled at 730 to 745 days old, 5 mg/kg"}}, "note": "Values joined by “and” are separate entries in the source; they are usually repeats but may differ in a detail not shown here. Equal values may be shown once. “Also recorded” adds a separate entry of the source.", "data": [{"molecule": "N#Cc1cc(-c2nc3c(O)ncnc3s2)ccc1Oc1ccccc1", "note": "[compound A, 5-(7-hydroxythiazolo[5,4-d]pyrimidin-2-yl)-2-phenoxy-benzonitrile]", "values": [{"measurement": "Tangle number as percentage of that of the control group", "setting": "[1]; FIG. 10, 5 mg/kg oral daily", "value": 36, "unit": "%"}, {"measurement": "Number of nerve cells having AT8 immunostaining-positive neurofibrillary tangles per one cerebrum coronal cut surface", "setting": "[1]; group average±standard deviation, 4 mice, 5 mg/kg oral daily about one year, control 209.9±46.0", "value": "77.0±67.1"}, {"measurement": "Number of nerve cells having AT8 immunostaining-positive neurofibrillary tangles, amygdaloid nucleus maximum diameter coronal cut surface", "setting": "[1]; [3]", "value": "103 and 175 and 13 and 18"}, {"measurement": "Number of nerve cells having AT8 immunostaining-positive neurofibrillary tangles, hypothalamus coronal cut surface", "setting": "[1]; [3]", "value": "149 and 119 and 26 and 13"}, {"measurement": "Number of nerve cells having AT8 immunostaining-positive neurofibrillary tangles compared with the control group", "setting": "[1]; p=0.016, Mann-Whitney U test, amygdaloid nucleus and hypothalamus, 5 mg/kg oral daily, FIG. 9, 10, 5 mg/kg", "value": "significantly smaller; also recorded: markedly suppresses; also recorded: fewer; also recorded: significantly lower"}, {"measurement": "Large-sized senile plaques in the hippocampus compared with placebo control group (photographs)", "setting": "[2]; HE staining, Aβ40 and Aβ42 immunostaining, FIG. 6 vs FIG. 5", "value": "clearly fewer"}, {"measurement": "Number of large-sized senile plaques per one cerebrum coronal cut surface", "setting": "[2]; group average±standard deviation, 4 mice, 5 mg/kg oral daily about one year, control 26.9±12.3", "value": "11.1±5.9"}, {"measurement": "Number of medium-sized senile plaques per one cerebrum coronal cut surface", "setting": "[2]; group average±standard deviation, 4 mice, 5 mg/kg oral daily about one year, control 44.3±14.5", "value": "30.9±20.5"}, {"measurement": "Number of small-sized senile plaques per one cerebrum coronal cut surface", "setting": "[2]; group average±standard deviation, 4 mice, 5 mg/kg oral daily about one year, control 88.3±35.2", "value": "104.4±36.8"}, {"measurement": "Number of small senile plaques, entorhinal cortex coronal cut surface", "setting": "[2]; [4]", "value": "96 and 78 and 110 and 164"}, {"measurement": "Number of small senile plaques, mammillary body coronal cut surface", "setting": "[2]; [4]", "value": "113 and 38 and 106 and 130"}, {"measurement": "Number of large-sized senile plaques, entorhinal cortex coronal cut surface", "setting": "[2]; [5]", "value": "16 and 10 and 11 and 2"}, {"measurement": "Number of large-sized senile plaques, mammillary body coronal cut surface", "setting": "[2]; [5]", "value": "21 and 12 and 5"}, {"measurement": "Number of medium-sized senile plaques, entorhinal cortex coronal cut surface", "setting": "[2]; [6]", "value": "78 and 24 and 31 and 14"}, {"measurement": "Number of medium-sized senile plaques, mammillary body coronal cut surface", "setting": "[2]; [6]", "value": "33 and 12 and 25 and 30"}, {"measurement": "Number of large-sized senile plaques compared with the control group", "setting": "[2]; p=0.013, Mann-Whitney U test, 5 mg/kg oral daily, FIG. 7, 5 mg/kg", "value": "significantly smaller; also recorded: significantly suppresses; also recorded: especially suppressed"}, {"measurement": "Number of medium-sized senile plaques compared with the control group", "setting": "[2]; p=0.036, Mann-Whitney U test, 5 mg/kg oral daily, FIG. 7, 5 mg/kg", "value": "significantly smaller; also recorded: significantly suppresses; also recorded: especially suppressed"}, {"measurement": "Number of small senile plaques compared with the control group", "setting": "[2]; p=0.400, Mann-Whitney U test, 5 mg/kg oral daily, FIG. 7", "value": "Any significant difference was not observed"}]}]}
